Measurements taken from patent US12208110B2 (priority 2020, dated 2025).
Like-named read-outs stand apart in the source and are kept apart here.

How the values were obtained:
Type in all cases: cell-based
SARS-CoV-2 = assay: microbe, parasite or virus in culture; conditions: Severe acute respiratory syndrome coronavirus 2, 48 h
[1] = test system: RSV-Fluc (Recombinant Respiratory Syncytial virus strain A2 containing the firefly luciferase reporter); assay: microbe, parasite or virus in culture; conditions: human respiratory syncytial virus, NHBE, 72 h, read-out: RSV-Fluc EC50 (nM, NHBE)
[2] = MT4 cytotoxicity analysis (CellTiter-Glo); conditions: human
Procedure: Example 79: MT4 Cytotoxicity Analysis
3-fold serially diluted compound in DMSO, ranging from 2.5 uM to 10 mM, were added by acoustic transfer (Echo) in quadruplicate into black 384-well plates at 200 nl/well. After compound addition, 40 ul MT-4 cells at 80,000/ml were added to each well using a MicroFlo liquid dispenser (BioTek, Winooski, VT) and the cells were cultured for five days at 37° C. Following the incubation, cell viability was determined by adding 35 μL of CellTiter-Glo viability reagent and mixed thoroughly using ViaFlo 384 well workstation. The mixture was incubated for at least 10 minutes at 25° C., and the luminescence signal was quantified on an EnVision plate reader.

| Compound | EC50 (SARS-CoV-2) [nM] | EC50 [1] [nM] | CC50 at 5 days ([2]; MT4 CC50 (nM)) [nM] | CC50 at 5 days ([2]; MT-4 cells, five days, CellTiter-Glo, read-out: MT4 CC50) [nM] |
| --- | --- | --- | --- | --- |
| CCCCCCCCCCCCCCCCCCOC[C@H](COP(=O)(O)OC[C@H]1O[C@@](C#N)(c2ccc3c(N)ncnn23)[C@H](O)[C@@H]1O)OCc1cncc(S(C)(=O)=O)c1 [Example 43, ((2R,3S,4R,5R)-5-(4-aminopyrrolo[2,1-f][1,2,4]triazin-7-yl)-5-cyano-3,4-dihydroxytetrahydrofuran-2-yl)methyl ((R)-2-((5-(methylsulfonyl)pyridin-3-yl)methoxy)-3-(octadecyloxy)propyl) hydrogen phosphate] | 79 | 59 | 280 | – |
| CCCCCCCCCCCCCCCCCCOC[C@H](COc1ccccc1)OP(=O)(O)OC[C@H]1O[C@@](C#N)(c2ccc3c(N)ncnn23)[C@H](O)[C@@H]1O [Example 18, ((2R,3S,4R,5R)-5-(4-aminopyrrolo[2,1-f][1,2,4]triazin-7-yl)-5-cyano-3,4-dihydroxytetrahydrofuran-2-yl)methyl ((R)-1-(octadecyloxy)-3-phenoxypropan-2-yl) hydrogen phosphate] | 1800 | 69 | – | 670 |
| CCCCCCCCCCCCCCCCCCOC[C@H](COP(=O)(O)OC[C@H]1O[C@@](C#N)(c2ccc3c(N)ncnn23)[C@H](O)[C@@H]1O)Oc1cc(C)c(C#N)cc1F [Example 49, ((2R,3S,4R,5R)-5-(4-aminopyrrolo[2,1-f][1,2,4]triazin-7-yl)-5-cyano-3,4-dihydroxytetrahydrofuran-2-yl)methyl ((R)-2-(4-cyano-2-fluoro-5-methylphenoxy)-3-(octadecyloxy)propyl) hydrogen phosphate] | – | 23 | 1100 | – |
| CCCCCCCCCCCCCCCCCCOC[C@H](COP(=O)(O)OC[C@H]1O[C@@](C#N)(c2ccc3c(N)ncnn23)[C@H](O)[C@@H]1O)Oc1ccc(C#N)c(OC)c1F [Example 48, ((2R,3S,4R,5R)-5-(4-aminopyrrolo[2,1-f][1,2,4]triazin-7-yl)-5-cyano-3,4-dihydroxytetrahydrofuran-2-yl)methyl ((R)-2-(4-cyano-2-fluoro-3-methoxyphenoxy)-3-(octadecyloxy)propyl) hydrogen phosphate] | – | 17 | 160 | – |
| CCCCCCCCCCCCCCCCCCN(C)C(=O)[C@H](COP(=O)(O)OC[C@H]1O[C@@](C#N)(c2ccc3c(N)ncnn23)[C@H](O)[C@@H]1O)OCc1cc(F)cc(C#N)c1 [Example 56, ((2R,3S,4R,5R)-5-(4-aminopyrrolo[2,1-f][1,2,4]triazin-7-yl)-5-cyano-3,4-dihydroxytetrahydrofuran-2-yl)methyl ((S)-2-((3-cyano-5-fluorobenzyl)oxy)-3-(methyl(octadecyl)amino)-3-oxopropyl) hydrogen phosphate] | – | 13 | 200 | – |
| CCCCCCCCCCCCCCCCCCOC[C@H](COP(=O)(O)OC[C@H]1O[C@@](C#N)(c2ccc3c(N)ncnn23)[C@H](O)[C@@H]1O)OCc1cc(F)cc(C(=O)O)c1 [Example 44, 3-((((2R)-1-(((((2R,3S,4R,5R)-5-(4-aminopyrrolo[2,1-f][1,2,4]triazin-7-yl)-5-cyano-3,4-dihydroxytetrahydrofuran-2-yl)methoxy)(hydroxy)phosphoryl)oxy)-3-(octadecyloxy)propan-2-yl)oxy)methyl)-5-fluorobenzoic acid] | – | 120 | 25000 | – |
| CCCCCCCCCCCCCCCCCCOC[C@H](Cc1ccccc1)OP(=O)(O)OC[C@H]1O[C@@](C#N)(c2ccc3c(N)ncnn23)[C@H](O)[C@@H]1O [Example 40, ((2R,3S,4R,5R)-5-(4-aminopyrrolo[2,1-f][1,2,4]triazin-7-yl)-5-cyano-3,4-dihydroxytetrahydrofuran-2-yl)methyl ((S)-1-(octadecyloxy)-3-phenylpropan-2-yl) hydrogen phosphate] | – | 380 | – | – |
| CCCCCCCCCCCCCCCCCCOC[C@H](COP(=O)(O)OC[C@H]1O[C@@](C#N)(c2ccc3c(N)ncnn23)[C@H](O)[C@@H]1O)OCc1cc(C#N)c(Cl)c(OC)c1 [Example 54, ((2R,3S,4R,5R)-5-(4-aminopyrrolo[2,1-f][1,2,4]triazin-7-yl)-5-cyano-3,4-dihydroxytetrahydrofuran-2-yl)methyl ((R)-2-((4-chloro-3-cyano-5-methoxybenzyl)oxy)-3-(octadecyloxy)propyl) hydrogen phosphate] | – | 64 | 1300 | – |
| CCCCCCCCCCCCCCCCCCOC[C@H](COP(=O)(O)OC[C@H]1O[C@@](C#N)(c2ccc3c(N)ncnn23)[C@H](O)[C@@H]1O)OCc1cc(F)c(Cl)c(C#N)c1 [Example 50, ((2R,3S,4R,5R)-5-(4-aminopyrrolo[2,1-f][1,2,4]triazin-7-yl)-5-cyano-3,4-dihydroxytetrahydrofuran-2-yl)methyl ((R)-2-((4-chloro-3-cyano-5-fluorobenzyl)oxy)-3-(octadecyloxy)propyl) hydrogen phosphate] | – | 24 | 640 | – |
| CCCCCCCCCCCCCCCCCCOC[C@H](COCc1cc(F)cc(S(C)(=O)=O)c1)OP(=O)(O)OC[C@H]1O[C@@](C#N)(c2ccc3c(N)ncnn23)[C@H](O)[C@@H]1O [Example 33, ((2R,3S,4R,5R)-5-(4-aminopyrrolo[2,1-f][1,2,4]triazin-7-yl)-5-cyano-3,4-dihydroxytetrahydrofuran-2-yl)methyl ((R)-1-((3-fluoro-5-(methylsulfonyl)benzyl)oxy)-3-(octadecyloxy)propan-2-yl) hydrogen phosphate] | – | 120 | – | – |
| CCCCCCCCCCCCCCCCOCCOP(=O)(O)OC[C@H]1O[C@@](C#N)(c2ccc3c(N)ncnn23)[C@H](O)[C@@H]1O [Example 20, ((2R,3S,4R,5R)-5-(4-Aminopyrrolo[2,1-f][1,2,4]triazin-7-yl)-5-cyano-3,4-dihydroxytetrahydrofuran-2-yl)methyl (2-(hexadecyloxy)ethyl) hydrogen phosphate] | 3800 | 200 | – | – |
| CCCCCCCCCCCCCCCCSCCCOP(=O)(O)OC[C@H]1O[C@@](C#N)(c2ccc3c(N)ncnn23)[C@H](O)[C@@H]1O [Example 19, ((2R,3S,4R,5R)-5-(4-Aminopyrrolo[2,1-f][1,2,4]triazin-7-yl)-5-cyano-3,4-dihydroxytetrahydrofuran-2-yl)methyl (3-(hexadecylthio)propyl) hydrogen phosphate] | 3400 | 210 | – | – |
| CCCCCCCCCCCCCCCCCCOC[C@H](COP(=O)(O)OC[C@H]1O[C@@](C#N)(c2ccc3c(N)ncnn23)[C@H](O)[C@@H]1O)N(Cc1ccc(F)c(Cl)c1)C(C)=O [Example 10, ((2R,3S,4R,5R)-5-(4-aminopyrrolo[2,1-f][1,2,4]triazin-7-yl)-5-cyano-3,4-dihydroxytetrahydrofuran-2-yl)methyl ((R)-2-(N-(3-chloro-4-fluorobenzyl)acetamido)-3-(octadecyloxy)propyl) hydrogen phosphate] | 3600 | 55 | – | – |
| CCCCCCCCCCCCCCCCCCOC[C@H](COP(=O)(O)OC[C@H]1O[C@@](C#N)(c2ccc3c(N)ncnn23)[C@H](O)[C@@H]1O)OCc1cc(F)c(C)c(C#N)c1 [Example 53, ((2R,3S,4R,5R)-5-(4-aminopyrrolo[2,1-f][1,2,4]triazin-7-yl)-5-cyano-3,4-dihydroxytetrahydrofuran-2-yl)methyl ((R)-2-((3-cyano-5-fluoro-4-methylbenzyl)oxy)-3-(octadecyloxy)propyl) hydrogen phosphate] | – | 25 | 430 | – |
| CCCCCCCCCCCCCCCCCCOC[C@H](COP(=O)(O)OC[C@H]1O[C@@](C#N)(c2ccc3c(N)ncnn23)[C@H](O)[C@@H]1O)Oc1cc(OC)c(C#N)cc1F [Example 52, ((2R,3S,4R,5R)-5-(4-aminopyrrolo[2,1-f][1,2,4]triazin-7-yl)-5-cyano-3,4-dihydroxytetrahydrofuran-2-yl)methyl ((R)-2-(4-cyano-2-fluoro-5-methoxyphenoxy)-3-(octadecyloxy)propyl) hydrogen phosphate] | – | 17 | 370 | – |
| CCCCCCCCCCCCCCCCCCOC[C@H](COP(=O)(O)OC[C@H]1O[C@@](C#N)(c2ccc3c(N)ncnn23)[C@H](O)[C@@H]1O)OCc1cc(F)c(CCC)c(C#N)c1 [Example 51, ((2R,3S,4R,5R)-5-(4-aminopyrrolo[2,1-f][1,2,4]triazin-7-yl)-5-cyano-3,4-dihydroxytetrahydrofuran-2-yl)methyl ((R)-2-((3-cyano-5-fluoro-4-propylbenzyl)oxy)-3-(octadecyloxy)propyl) hydrogen phosphate] | – | 100 | 6700 | – |
| CCCCCCCCCCCCCCCCCCOC[C@H](COP(=O)(O)OC[C@H]1O[C@@](C#N)(c2ccc3c(N)ncnn23)[C@H](O)[C@@H]1O)N1Cc2ccccc2C1=O [Example 11, ((2R,3S,4R,5R)-5-(4-aminopyrrolo[2,1-f][1,2,4]triazin-7-yl)-5-cyano-3,4-dihydroxytetrahydrofuran-2-yl)methyl ((R)-3-(octadecyloxy)-2-(1-oxoisoindolin-2-yl)propyl) hydrogen phosphate] | 3800 | 47 | – | – |
| CCCCCCCCCCCCCCCCOCCOP(=O)(O)OC[C@H]1O[C@@](C#N)(c2ccc3c(N)ncnn23)[C@H](O)[C@@H]1O [Example 66, [(2R,3S,4R,5R)-5-(4-Aminopyrrolo[2,1-f][1,2,4]triazin-7-yl)-5-cyano-3,4-dihydroxy-tetrahydrofuran-2-yl]methyl 2-hexadecoxyethyl hydrogen phosphate] | – | – | 29000 | – |
